Test results published in patent US20070072883A1, “Fungicidal mixtures” (BASF Aktiengesellschaft, priority 2003, published 2007).

Columns and labels:
Cochliobolus miyabeanus = assay: Activity against brown spot of rice caused by Cochliobolus miyabeanus, protective application; assay type: in vivo; conditions: rice seedlings "Tai-Nong 67", six days after inoculation
Procedure: (§1) The active compounds, separately or jointly, were prepared as a stock solution comprising 0.25% by weight of active compound in acetone or DMSO. 1% by weight of the emulsifier Uniperol® EL (wetting agent having emulsifying and dispersant action based on ethoxylated alkylphenols) was added to this solution, and the mixture was diluted with water to the desired concentration.
Use Example 1—Activity Against Brown Spot of Rice Caused by Cochliobolus miyabeanus, Protective Application Leaves of potted rice seedlings of the cultivar “Tai-Nong 67” were sprayed to runoff point with an aqueous suspension of the concentration of active compound stated below. The next day, the plants were inoculated with an aqueous spore suspension of Cochliobolus miyabeanus. The test plants were then placed in climatized chambers at 22-24° C. and 95-99% relative atmospheric humidity for six days. The extent of the development of the infection on the leaves was then determined visually.
Evaluation was carried out by determining the percentage of infected leaf area. These percentages were converted into efficacies.
The efficacy (E) is calculated as follows using Abbot's formula: E=(1−α/β)·100 α corresponds to the fungicidal infection of the treated plants in % and β corresponds to the fungicidal infection of the untreated (control) plants in % An efficacy of 0 means that the infection level of the treated plants corresponds to that of the untreated control plants; an efficacy of 100 means that the treated plants are not infected.
The expected efficacies of mixtures of active compounds are determined using Colby's formula (R. S. Colby, Weeds, 15, 20-22, 1967) and compared with the observed efficacies.
Colby's formula: E=x+y−x·y/100 • E expected efficacy, expressed in % of the untreated control, when using the mixture of the active compounds A and B at the concentrations a and b • x efficacy, expressed in % of the untreated control, when using the active compound A at the concentration a y efficacy, expressed in % of the untreated control, when using the active compound B at the concentration b

Corticium sasakii = assay: Activity against sheath blight on rice caused by Corticium sasakii; assay type: in vivo; conditions: rice plants "Tai-Nong 67", after 11 days
Procedure: as §1
Use Example 2—Activity Against Sheath Blight on Rice Caused by Corticium sasakii
Pots with rice plants of the cultivar “Tai-Nong 67”, were sprayed to runoff point with an aqueous suspension having the concentration of active compounds stated below. The next day, oat grains infected with Corticium sasakii were placed into the pots (in each case 5 grains per pot). The plants were then placed in a chamber at 26° C. and maximum atmospheric humidity. After 11 days, the sheath blight on the untreated but infected control plants had developed to such an extent that the infection could be determined visually in %.
Evaluation was carried out analogously to Example 1.

Structure (SMILES)	Efficacy in % of the untreated control (Cochliobolus miyabeanus; 4 ppm in the spray liquor) [%]	Efficacy in % of the untreated control (Corticium sasakii; 4 ppm in the spray liquor) [%]	Efficacy in % of the untreated control (Cochliobolus miyabeanus; 1 ppm in the spray liquor) [%]	Efficacy in % of the untreated control (Corticium sasakii; 1 ppm in the spray liquor) [%]
CC1CCN(c2c(-c3c(F)cc(F)cc3F)c(Cl)nc3ncnn23)CC1 [I, 5-chloro-7-(4-methylpiperidin-1-yl)-6-(2,4,6-trifluorophenyl)-[1,2,4]triazolo[1,5-a]pyrimidine]	33	37		
N#Cc1c[nH]cc1-c1cccc2c1OC(F)(F)O2 [II (fludioxonil), 4-(2,2-difluorobenzo[1,3]dioxol-4-yl)-1H-pyrrole-3-carbonitrile]	33	6	0	0
